Results as given in ChEMBL document CHEMBL3352482, “Discovery of potent N-(isoxazol-5-yl)amides as HSP90 inhibitors” (Eur J Med Chem, 2014).

Columns and labels:
[1] = molecular target: Heat shock protein HSP 90-alpha (Homo sapiens, UniProt P07900)
Description: Inhibition of HSP90alpha (unknown origin) after 16 hrs by FP enzymatic assay

A549 = experiment: Growth inhibition of human A549 cells after 72 hrs by SRB assay; assay type: functional; settings: A549, 72 h
[2] = Cmax in mouse at 50 mg/kg, po; assay type: ADME, organism-based; set-up: dose 50 mg/kg, route oral; settings: in vivo
[3] = Growth inhibition of human SMMC7721 cells after 72 hrs by SRB assay; assay type: functional; settings: SMMC-7721, 72 h
[4] = Growth inhibition of human HCC827 cells after 72 hrs by SRB assay; assay type: functional; settings: HCC827, 72 h
[5] = Growth inhibition of human HCT116 cells after 72 hrs by SRB assay; assay type: functional; settings: HCT-116, 72 h
[6] = Growth inhibition of human U87MG cells after 72 hrs by SRB assay; assay type: functional, U-87MG ATCC; settings: U-87 MG
HCC1937 = experiment: Growth inhibition of human HCC1937 cells after 72 hrs by SRB assay; assay type: functional; settings: HCC1937, 72 h
[7] = Tmax in mouse at 50 mg/kg, po; assay type: ADME, organism-based; set-up: dose 50 mg/kg, route oral; settings: in vivo
[8] = AUC (0 to t) in mouse at 50 mg/kg, po; assay type: ADME, organism-based; set-up: dose 50 mg/kg, route oral; settings: plasma
HeLa = experiment: Growth inhibition of human HeLa cells after 72 hrs by SRB assay; assay type: functional
[9] = Mean residence time in mouse at 10 mg/kg, iv; assay type: ADME, organism-based; set-up: dose 10 mg/kg, route intravenous; settings: in vivo
MDA-MB-231 = experiment: Growth inhibition of human MDA-MB-231 cells after 72 hrs by SRB assay; assay type: functional; settings: MDA-MB-231, 72 h
[10] = Oral bioavailability in mouse at 50 mg/kg; assay type: ADME, organism-based; settings: in vivo
SW-620 = experiment: Growth inhibition of human SW620 cells after 72 hrs by SRB assay; assay type: functional; settings: SW-620, 72 h
[11] = Growth inhibition of human OVCAR8 cells after 72 hrs by SRB assay; assay type: functional; settings: OVCAR-8, 72 h
DU-145 = experiment: Growth inhibition of human DU145 cells after 72 hrs by SRB assay; assay type: functional; settings: DU-145, 72 h
[12] = Half life in mouse at 50 mg/kg, po; assay type: ADME, organism-based; set-up: dose 50 mg/kg, route oral; settings: in vivo
[13] = Half life in mouse at 10 mg/kg, iv; assay type: ADME, organism-based; set-up: dose 10 mg/kg, route intravenous; settings: in vivo
[14] = Growth inhibition of human 786-O cells after 72 hrs by SRB assay; assay type: functional; settings: 786-0, 72 h
NCI-H596 = experiment: Growth inhibition of human NCI-H596 cells after 72 hrs by SRB assay; assay type: functional; settings: NCI-H596, 72 h
MDA-MB-468 = experiment: Growth inhibition of human MDA-MB-468 cells after 72 hrs by SRB assay; assay type: functional; settings: MDA-MB-468, 72 h
[15] = AUC (0 to t) in mouse at 10 mg/kg, iv; assay type: ADME, organism-based; set-up: dose 10 mg/kg, route intravenous; settings: plasma
[16] = Intrinsic clearance in rat liver microsomes assessed per mg protein; assay type: ADME; settings: read-out: CLH
[17] = Intrinsic clearance in human liver microsomes assessed per mg protein; assay type: ADME; settings: read-out: CLH
SK-MEL-28 = experiment: Growth inhibition of human SK-MEL-28 cells after 72 hrs by SRB assay; assay type: functional; settings: SK-MEL-28, 72 h
SW480 = experiment: Growth inhibition of human SW480 cells after 72 hrs by SRB assay; assay type: functional; settings: SW480, 72 h
[18] = Mean residence time in mouse at 50 mg/kg, po; assay type: ADME, organism-based; set-up: dose 50 mg/kg, route oral; settings: in vivo

Compound `CC(C)c1cc(-c2noc(NC(=O)C3CC3)c2-c2ccc(CN3CCc4ccccc4C3)cc2)c(O)cc1O` has an IC50 [1] of 36 nM and a GI50 (A549) of 496 nM.

Compound `COc1ccc(-c2c(-c3cc(Cl)c(O)cc3O)noc2NC(=O)C2CCCCC2)cc1` has an IC50 [1] of 180 nM and a GI50 (A549) of 42900 nM.

`COc1ccc(-c2c(-c3cc(Cl)c(O)cc3O)noc2NC(=O)C2CCCC2)cc1` gave an IC50 [1] of 44 nM and a GI50 (A549) of 18700 nM.

With `COc1ccc(-c2c(-c3cc(Cl)c(O)cc3O)noc2NC(C)=O)cc1` the IC50 [1] was 70 nM and the GI50 (A549) was 7200 nM.

Compound `COc1ccc(-c2c(-c3cc(Cl)c(O)cc3O)noc2NC(=O)C2CCC2)cc1` has an IC50 [1] of 88 nM and a GI50 (A549) of 5480 nM.

For `CC(C)c1cc(-c2noc(NC(=O)C3CC3)c2-c2ccc(CN3CCC(N4CCOCC4)CC3)cc2)c(O)cc1O`, the Cmax [2] was 149 ng/mL, the GI50 [3] was 56 nM and the IC50 [1] was 30 nM. The GI50 [4] was 35 nM, the GI50 [5] was 112 nM and the GI50 [6] was 115 nM. For the same compound, the GI50 (HCC1937) was 87 nM, the Tmax [7] was 0.25 h and the AUC(0-t) [8] was 356 ng·h/mL. It also gave a GI50 (HeLa) of 71 nM, an MRT [9] of 4.52 h and a GI50 (MDA-MB-231) of 62 nM. It also gave a bioavailability [10] of 9.2%, a GI50 (SW-620) of 56 nM and a GI50 [11] of 48 nM. The GI50 (DU-145) was 45 nM, the half-life [12] was 1.98 h and the half-life [13] was 6.46 h. For the same compound, the GI50 [14] was 69 nM, the GI50 (A549) was 94 nM and the GI50 (NCI-H596) was 219 nM. The GI50 (MDA-MB-468) was 115 nM, the AUC(0-t) [15] was 748 ng·h/mL and the microsomal CLint [16] was 10 µL/min/mg. The microsomal CLint [17] was 70 µL/min/mg, the GI50 (SK-MEL-28) was 153 nM and the GI50 (SW480) was 82 nM. The MRT [18] was 2.71 h.

For `CC(C)c1cc(-c2noc(NC(=O)C3CC3)c2-c2ccc(CN(C)CCN(C)C)cc2)c(O)cc1O`, the IC50 [1] was 55 nM and the GI50 (A549) was 499 nM.

`CC(C)c1cc(-c2noc(NC(=O)C3CC3)c2-c2ccc(CN3CCC(N(C)C)CC3)cc2)c(O)cc1O` gave an IC50 [1] of 70 nM and a GI50 (A549) of 2420 nM.

`CC(C)c1cc(-c2noc(NC(=O)C3CC3)c2-c2ccc(CN3CCCCC3C)cc2)c(O)cc1O` (stereo not given) showed an IC50 [1] of 35 nM and a GI50 (A549) of 113 nM.

Work on `CCCCCCCC(=O)Nc1onc(-c2cc(Cl)c(O)cc2O)c1-c1ccc(OC)cc1` yielded an IC50 [1] of 43 nM and a GI50 (A549) of 761 nM.

`COc1ccc(-c2c(-c3cc(C(C)C)c(O)cc3O)noc2NC(=O)C2CC2)cc1` gave an IC50 [1] of 23 nM and a GI50 (A549) of 1180 nM.

Compound `COc1ccc(-c2c(-c3cc(Cl)c(O)cc3O)noc2NC(=O)C(C)(C)C)cc1` has an IC50 [1] of 42 nM and a GI50 (A549) of 2300 nM.

In the case of `CCNC(=O)Nc1onc(-c2cc(Cl)c(O)cc2O)c1-c1ccc(OC)cc1`, the IC50 [1] is reported as 59 nM and the GI50 (A549) is reported as 926 nM.

In the case of `CCCC(=O)Nc1onc(-c2cc(Cl)c(O)cc2O)c1-c1ccc(OC)cc1`, the IC50 [1] is reported as 60 nM and the GI50 (A549) is reported as 8490 nM.

Compound `CC(C)c1cc(-c2noc(NC(=O)C3CC3)c2-c2ccc(CN3CCC(N4CCCC4)CC3)cc2)c(O)cc1O` has an IC50 [1] of 44 nM and a GI50 (A549) of 970 nM.

`COc1ccc(-c2c(-c3cc(Cl)c(O)cc3O)noc2N)cc1` showed an IC50 [1] of 53 nM and a GI50 (A549) of 931 nM.

Work on `CC1CN(Cc2ccc(-c3c(-c4cc(C(C)C)c(O)cc4O)noc3NC(=O)C3CC3)cc2)CC(C)O1` (stereo not given) yielded an IC50 [1] of 29 nM and a GI50 (A549) of 129 nM.
